Patent EP2535049A1 (Proyecto de Biomedicina Cima, S.L., priority 2011, dated 2012)
Entries after “also recorded” stand apart in the source; their conditions may differ.

Experiments:
[1] = tested on: aged wild type animals (C57/b6xSJL); assay: Fear conditioning test in aged wild type animals; format: in vivo, mice; details: 5-weeks treatment, 15 mg/Kg orally, aged (12-14-month-old) wild type animals, 24h and 7 days after training, vs saline
Description: Results were compared with those obtained from age-matched negative littermates (controls). […] After running the MWM, all the animals were trained in the fear conditioning test. The conditioning procedure was carried out in a StartFear system (Panlab S.L.) that allows recording and analysis of the signal generated by the animal movement through a high sensitivity Weight Transducer system. The analogical signal is transmitted to the FREEZING and […] software modules through the load cell unit for recording purposes and posterior analysis in terms of activity/immobility. The conditioning box is housed inside a soundproof chamber, which minimized external stimulation during the conditioning and retention tests. The box was provided with a house light that supplied dim illumination and with a floor grid through which foot shocks could be administered. On training day, the mice were placed in the conditioning chamber for 2 minutes before the onset of a tone at 2800 Hz, 85 dB (conditioned stimulus, CS), which lasted for 30 seconds. The last 2 seconds of the CS was paired with a 0.3 mA foot shock (unconditioned stimulus, US). Thirty seconds after the paired CS-US, mice were returned to their cage. […] Freezing behavior was defined as the lack of movement except for breathing for at least 2 seconds, and was analyzed to give the percentage time freezing during exposure to the chamber. […]

pGSK3β-Ser9 = assay: Western blot of pGSK3β-Ser9 in hippocampus of J20 mice; format: in vivo; details: J20 mice treated for 10 weeks, vs saline
Description: (§1) Results were compared with those obtained from age-matched negative littermates (controls). To test the effect of the PDE5 inhibitors in cognition capacity related to aging, a second treatment was carried out using 10-12 month-old non-transgenic (wild type) mice on an inbred C57/B6xSJL genetic background.
(§2) Twenty four hours after the fear conditioning test, animals (n=5, per group) were sacrificed and the brains removed for biochemical studies. The cortex and hippocampus were dissected, homogenized, and processed as described below for subsequent western blot analysis. […]
(§3) Total tissue homogenates were obtained by homogenizing the hippocampus in a cold lysis buffer with protease inhibitors (0.2 M NaCl, 0.1 M HEPES, 10% glycerol, 200 mM NaF, 2 mM Na4P2O7, 5 mM EDTA, 1 mM EGTA, 2 mM DTT, 0.5 mM PMSF, 1 mM Na3VO4, 1 mM benzamidine, 10 µg/ml leupeptin, 400 U/ml aprotinin), centrifuged at 14,000 x g 4 °C for 20 minutes and the supernatant was aliquoted and stored at -80 °C. Total protein concentrations were determined using the BioRad Bradford protein assay (BioRad Laboratories).
(§4) Protein samples were mixed with an equal volume of 2 x Laemmli sample buffer, resolved onto SDS-polyacrylamide gels and transferred to nitrocellulose membrane. […] Quantity OneTM software v.4.6.3 (Bio-Rad) was used for quantification.

PSD95 = assay: Western blot of PSD95 in hippocampus of J20 mice; format: in vivo; details: J20 mice treated for 10 weeks
Description: as §1, §2, §3, §4

synaptophysin = assay: Western blot of synaptophysin in hippocampus of J20 mice; format: in vivo; details: J20 mice treated for 10 weeks
Description: as §1, §2, §3, §4

pTau = assay: Western blot of pTau in hippocampus of J20 mice; format: in vivo; details: J20 mice (22-month-old) treated for 10 weeks, normalized to total Tau
Description: as §1
Twenty four hours after the fear conditioning test, animals (n=5, per group) were sacrificed and the brains removed for biochemical studies. The cortex and hippocampus were dissected, homogenized, and processed as described below for subsequent western blot analysis. Under xylazine/ketamine anesthesia, animals (n=4 per group) were perfused transcardially with saline and 4% paraformaldehyde in phosphate buffer (PB). After perfusion, brains were removed, post-fixed in the same fixative solution for 1 h at room temperature and cryoprotected in 30% sucrose solution in PB overnight at 4 °C. Microtome sections ([…]) were cut coronally, collected free-floating and stored in 30% ethylene glycol, 30% glycerol, and 0.1M PB at - 20 °C until processed.
as §3
Protein samples were mixed with an equal volume of 2 x Laemmli sample buffer, resolved onto SDS-polyacrylamide gels and transferred to nitrocellulose membrane. […] Following two washes in PBS/Tween-20 or TBS/Tween-20 and one PBS or TBS alone, immunolabeled protein bands were detected by using HRP-conjugated anti-rabbit or anti-mouse antibody (Santa Cruz; dilution 1:5000) following an enhanced chemiluminescence system (ECL, GE Healthcare Bioscience, Buckinghamshire, UK), and autoradiographic exposure to Hyperfilm™ECL (GE Healthcare Bioscience). Quantity OneTM software v.4.6.3 (Bio-Rad) was used for quantification.

SMILES	learning ability and memory retention in the FC test [1]	pGSK3β-Ser9 levels (pGSK3β-Ser9)	expression levels of PSD95 (PSD95)	expression levels of synaptophysin (synaptophysin)	pTau levels (AT8) by Western blotting (pTau)	pTau levels (PHF1) by Western blotting (pTau)	pTau levels (AT8) by Western blotting (pTau; listed as Tadalafil)
CN1CC(=O)N2[C@H](c3ccc4c(c3)OCO4)c3[nH]c4ccccc4c3C[C@@H]2C1=O [tadalafil, (6R-trans)-6-(1,3-benzodioxol-5-yl)-2,3,6,7,12,12a-hexahydro-2-methyl-pyrazino [1',2':1,6] pyrido [3,4-b]indole-1,4-dione]	significant enhancement of memory; also recorded: improved learning ability and memory retention	significantly increased; also recorded: being higher the effect of tadalafil	recovered the low expression levels	recovered the low expression levels	decrease in Tau pathology	more marked in tadalafil-treated mice	even more effective than sildenafil
CCCc1nn(C)c2c(=O)[nH]c(-c3cc(S(=O)(=O)N4CCN(C)CC4)ccc3OCC)nc12 [sildenafil]	significant enhancement of memory; also recorded: only observed in the FC test (24h after training)	significantly increased	recovered the low expression levels	recovered the low expression levels	decrease in Tau pathology		
